Tests used:
[1] = Stability in phosphate buffered D2O, pD=7.4 (33 mM) by quantitative 1H NMR; assay type: physicochemical
Method: (§1) Phosphate buffered D2O (pD=7.4) was prepared by combining anhydrous sodium dihydrogen phosphate (NaH2PO4, 77.1 mg) and anhydrous disodium hydrogen phosphate (Na2HPO4, 204.4 mg) with 20 mL of D2O to make a 0.1 M solution. The pD was measured on a Fisher Scientific AB15 Plus pH meter and pH values were converted to pD by adding 0.4 units. The pD was adjusted to 7.4 with DCI (35 wt. % in D2O) and NaOD (40 wt. % in D2O) as necessary.
(§2) A solution of 14 (4.3 mg, 25 μmol) in phosphate buffered D2O (750 μL, pD=7.4) was monitored by quantitative ^1H NMR on a 600 MHz instrument to observe the decomposition of the trans-isomer over time. Methyl tert-butyl ether (3.0 μL, 26 μmol) was used as an internal standard. After 1 day, 90% of 14 remained and after 5 days, 39% remained (FIG. 6B). The results were plotted using Prism software (Version 8.00, GraphPad Software Inc). A waterfall plot of the ^1H NMR spectra is provided.
as §2, with “4a (3.2” for “14 (4.3”, “85%” for “90%”, “4a” for “14”, “35%” for “39%”

[2] = Stopped-flow kinetics of the Diels-Alder reaction with tetrazine 20; assay type: physicochemical; conditions: for Kobs: 95:5 PBS/MeOH, in s-1 (unit assumed)
Method: The kinetics for the reaction of a-TCO derivative 14 toward a 3,6-dipyridyl-s-tetrazinyl succinamic acid derivative 20 were measured by stopped flow kinetics at 25° C. in 95:5 PBS:MeOH (FIG. 4A).
Stopped-flow kinetics measurements were performed on a SX18MV-R stopped-flow spectrophotometer (Applied Photophysics Ltd.) with temperature control (25° C.).
The reaction between 5-ax-hydroxy-5-eq-(2-hydroxyethyl)-trans-cyclooctene 14 and 3,6-dipyridyl-s-tetrazine-mono-succinamic acid 20 was monitored by a SX18MV-R stopped-flow spectrophotometer (Applied Photophysics Ltd.) at 325 nm by measuring the exponential decay of tetrazine under pseudo-first order conditions. Solutions of 14 (0.98, 1.46, 1.95, and 2.63 mM in 9:1 PBS/MeOH) and tetrazine (0.1 mM in PBS) were mixed in the stopped-flow spectrophotometer in equal volumes resulting in final concentrations of 0.49 mM, 0.73 mM, 0.97 mM, and 1.31 mM of 14 and 0.05 mM of tetrazine in 95:5 PBS/MeOH. Three independent samples were prepared for each TCO concentration and measurements were taken in duplicate every 0.1 ms for 0.1 sat 25° C. The observed rates kobs for each run were determined by nonlinear regression analysis of the data points using Prism software (Version 8.00, GraphPad Software Inc). The average kobs values were plotted against the concentrations of 14 to obtain the bimolecular rate constant k2 from the slope of the plot.
The observed rates (kobs) of 5-ax-hydroxy-5-eq-(2-hydroxyethyl)-trans-cyclooctene 14 (10-30 equivalents) and 3,6-dipyridyl-s-tetrazine-mono-succinamic acid 20 were measured using stopped-flow kinetics. The final concentrations of 14 after injection were (A) 0.49 mM, (B) 0.73 mM, (C) 0.97 mM, and (D) 1.31 mM and the concentration of tetrazine was 0.05 mM in 95:5 PBS/MeOH at 25° C. Duplicate measurements were obtained for three independent samples for each concentration of 14.
The reaction between 5-ax-hydroxy-trans-cyclooctene 4a and 3,6-dipyridyl-s-tetrazine-mono-succinamic acid 20 was monitored by a SX18MV-R stopped-flow spectrophotometer (Applied Photophysics Ltd.) at 325 nm by measuring the exponential decay of tetrazine under pseudo-first order conditions. Solutions of 4a (100, 200, 300, and 400 μM in 9:1 PBS/MeOH) and tetrazine (20 μM in PBS) were mixed in the stopped-flow […] 95:5 PBS/MeOH. Three independent samples were prepared for each TCO concentration and measurements were taken in duplicate every 0.1 ms for 0.2 s at 25° C. The observed rates kobs for each run were determined by nonlinear regression analysis of the data points using Prism software (Version 8.00, GraphPad Software Inc). The average kobs values were plotted against the concentrations of 4a to obtain the bimolecular rate constant k2 from the slope of the plot.
The observed rates (kobs) of 5-ax-hydroxy-trans-cyclooctene 4a (5-20 equivalents) and 3,6-dipyridyl-s-tetrazine-mono-succinamic acid 20 were measured using stopped-flow kinetics. […]

[3] = Stability in methanol-d4 (35 mM) by quantitative 1H NMR; assay type: physicochemical; conditions: 35 mM in methanol-d4, after 7 days
Method: as §2, with “(4.5” for “(4.3”, “26” for “25”, “methanol-d4” for “phosphate buffered D2O”, “μL)” for “μL, pD=7.4)”, “(3.1” for “(3.0”, “After 1 day, 90% of 14 remained and after 5 days, 39% remained (FIG. 6B).” left out
as §2, with “4a (3.3” for “14 (4.3”, “26” for “25”, “methanol-d4” for “phosphate buffered D2O”, “μL)” for “μL, pD=7.4)”, “(3.1” for “(3.0”, “After 1 day, 90% of 14 remained and after 5 days, 39% remained (FIG. 6B).” left out

[4] = Stability with mercaptoethanol (25 mM) in phosphate buffered D2O, pD=7.4; assay type: physicochemical; conditions: 25 mM mercaptoethanol
Method: as §1
TCO 14 (3.1 mg, 18 μmol) in a solution of mercaptoethanol in phosphate buffered D2O (720 μL, 18 μmol, 25 mM, pD=7.4) was monitored by quantitative 1H NMR on a 600 MHz instrument to observe the decomposition of the trans-isomer over time. Methyl tert-butyl ether (2.1 μL, 18 μmol) was used as an internal standard. After 4 hours, 93% of 14 remained and 49% of 14 remained after 20 hours. (FIG. 6C). The results were plotted using Prism software (Version 8.00, GraphPad Software Inc). A waterfall plot of the ^1H NMR spectra is provided.
TCO 4a (2.3 mg, 18 μmol) in a solution of mercaptoethanol in phosphate buffered D2O (720 μL, 18 μmol, 25 mM, pD=7.4) was monitored by quantitative 1H NMR on a 600 MHz instrument to observe the decomposition of the trans-isomer over time. Methyl tert-butyl ether (2.1 μL, 18 μmol) was used as an internal standard. After 4 hours, 89% of 4a and 49% of 4a remained after 20 hours. (FIG. 6C). The results were plotted using Prism software (Version 8.00, GraphPad Software Inc). A waterfall plot of the ^1H NMR spectra is provided.

[5] = test system: HeLa cells; assay: TAMRA-TCO comparative washout assay; assay type: cell-based; conditions: 5 μM, 30 min incubation
Description: While TCO-derivatives offer rapid labeling kinetics, a consideration for labeling by fluorophore-tagged TCOs has been the background fluorescence due to non-covalent cellular binding that can be ameliorated only by extended washout times. More hydrophilic oxo- and dioxo-trans-cyclooctenes with backbone oxygens offer improvements, but are difficult to synthesize and, for dioxo-TCO, display reduced Diels-Alder kinetics. As shown in FIGS. 5A-5C, the fluorescent conjugates TAM RA-TCO, TAMRA-oxo-TCO and TAMRA-a-TCO were prepared and compared their cellular washout times to unconjugated TAMRA. Thus, HeLa cells were incubated for 30 min with TAMRA-dyes, and cells were initially washed three times with DPBS, and then cell media was exchanged after 10, 40 and 120 minutes. After each wash, cells were imaged live by fluorescence microscopy with illumination at 531 nm and fixed-intensity across all samples. Widefield images of the cells after 3 washes are shown in FIG. 5B; images after the earlier and later washings are shown in FIG. 8. Background fluorescence was quantified by dividing total fluorescence by the number of cells in each image (FIG. 5C).
HeLa cells were seeded at 5×10^3 cells per well in a poly-L-lysine (0.1 mg/mL) coated 48-well plate and allowed to grow for 48 hours in Dulbecco's modified eagle medium (DMEM, Life Technologies) supplemented with 5% FBS (Life Technologies), 1 mM L-glutamine, and 1% penicillin/streptomycin (Life Technologies). Cells were then incubated with media containing 5 μM of TAMRA-TCO, TAMRA-oxo-TCO, or TAMRA-a-TCO 12 (1 mM stock solutions in DMSO, diluted twice into media) for 30 mins at 37° C. All wells were washed three times with DPBS before adding fresh media. Cells were imaged after 2 DPBS washes and again after the 3rd DPBS wash, then incubated for additional time intervals: 10 minutes, 40 minutes, and 2 hour. At each time point, the media was removed from the designated wells and replaced with fresh media before imaging. Images were taken with an EVOS M7000 and all images were taken with the same laser power and gain. Fluorescence intensity was calculated for each sample in 3 replicates using ImageJ and the fluorescence data was normalized with the cell count of each image.

TCO remaining ([1]; phosphate buffered D2O pD 7.4, 1 day (24 h), room temperature) [%]	TCO remaining ([1]; phosphate buffered D2O pD 7.4, 5 days) [%]	decomposition of the trans-isomer [3]	TCO remaining ([4]; phosphate buffered D2O pD 7.4, 4 hours) [%]	TCO remaining ([4]; phosphate buffered D2O pD 7.4, 20 hours) [%]	Structure (SMILES)	Kobs ([2]; A (0.49 mM) of 14, 0.05 mM tetrazine, 25° C.)	Kobs ([2]; B (0.73 mM) of 14, 0.05 mM tetrazine, 25° C.)	Kobs ([2]; C (0.97 mM) of 14, 0.05 mM tetrazine, 25° C.)	Kobs ([2]; D (1.31 mM) of 14, 0.05 mM tetrazine, 25° C.)	reactivity relative to oxo-TCO ([2]; comparison of k2 with oxo-TCO)	reactivity toward 20 relative to 4a ([2]; ratio of k2 versus axial isomer 4a)	reactivity toward 20 relative to 4b ([2]; ratio of k2 versus equatorial isomer 4b) [times]	second-order rate constant k2 ([2]; toward tetrazine 20, stopped flow, 25° C., 95:5 PBS:MeOH)	background fluorescence after 3 washings ([5]; 3 washes with DPBS)	background fluorescence / washout after 2 hours ([5]; media exchanges up to 2 hours)
90	39	no observable decomposition	93	49	OCC[C@]1(O)CC/C=C/CCC1 [Compound 14, 5-ax-Hydroxy-5-eq-(2-hydroxyethyl)-trans-cyclooctene]	76.13	121.4	162.4	200.2	more reactive than oxo-TCO	more than twice as reactive	~7	150,000±8000 M^−1s^−1		
					CN(C)c1ccc2c(-c3ccc(C(=O)NCCCCCNC(=O)OC[C@@H]4CC/C=C/CCO4)cc3C(=O)[O-])c3ccc(=[N+](C)C)cc-3oc2c1 (stereo in doubt) [TAMRA-oxo-TCO, (S,E)-2-(6-(dimethylamino)-3-(dimethyliminio)-3H-xanthen-9-yl)-5-((5-((((3,4,7,8-tetrahydro-2H-oxocin-2-yl)methoxy)carbonyl)amino)pentyl)carbamoyl)benzoate, reference compound]									improved	residual fluorescence
